Laboratory results as given in patent US20130109698A1, “Small Molecule Inhibitors of Functions of the HIV-1 Matrix Protein” (priority 2010, published 2013).

Experiments:
[1] = system: Vaccinia; format: cell-based; details: up to 100 μM
[2] = system: influenza H1N1; assay: Antiviral spectrum: cytopathic effect assay; format: cell-based; details: influenza H1N1, up to 100 μM
[3] = system: yellow fever; format: cell-based; details: up to 100 μM
[4] = system: respiratory syncytial virus; assay: Antiviral spectrum: cytopathic effect assay; format: cell-based
[5] = system: SIV MAC251; assay: Antiviral efficacy in PBMCs, reverse transcriptase activity; format: cell-based; details: for IC50 / IC90: Simian immunodeficiency virus, PBMC
[6] = biological target: T1, HIV-1 MA (Human immunodeficiency virus type 1 group M subtype B, UniProt P03348); assay: Surface plasmon resonance direct binding to immobilized HIV-1 MA; details: for direct interaction with sensor chip-immobilized HIV-1 MA: CM7 sensor chip, 10 μM (FIG. 14)
T1 construct: His6 (N, cleaved yes); SUMO (N, cleaved yes); made in house; host or cells: Escherichia coli BL21 (DE3) Codon+-RIL
Text: An assay was devised to monitor the interactions of small-molecule compounds to HIV-1 MA using SPR. In this assay, HIV-1LA1 MA was immobilized to the flow cells of a CM5 sensor chip to high density (˜1.3 kRU) or a CM7 sensor chip to high density (19 kRU) using standard amine coupling. A reference surface was similarly created by immobilizing the SUMO protein or a nonspecific antibody ARC4033 (antimouse/rat interferon-γ: BioSource). In small-molecule assays, the buffering system used is important due to the low responses obtained in binding assays. […] A stock solution of the MTI compounds was prepared by dissolving in 100% dimethyl sulfoxide (DMSO) to a final concentration of 10 mM.
To prepare the sample for analysis, 30 μL of the stock solution of the compound of the invention was added to sample preparation buffer (PBS, pH 7.2) to a final volume of 1 mL and mixed thoroughly. Preparation of analyte in this manner ensured that the concentration of DMSO was matched with that of running buffer with 3% DMSO. Lower concentrations of each compound were then prepared by two-fold serial dilutions into running buffer (PBS, 3% DMSO, pH 7.2). These compound dilutions were then injected over the control and MA surfaces at a flow rate of 30 μL min^−, for a 4-min association phase, followed by a 5-min dissociation phase.
In one aspect, owing to the relatively fast dissociation rates of these compounds, regeneration of these surfaces was accomplished by extensive washing of the system followed by a 5 min wait phase, a second wash, and a final 15 min wait phase. To secure complete regeneration, a buffer injection (5 min^on/5 min^off) was performed before each subsequent injection of compound.
Response to a small-molecule compound (NBD-556) specific for HIV-1 gp120 was also monitored to ensure specificity.
Data analysis was performed using BIAEvaluation 4.0 software (GE Healthcare). The responses of a buffer injection and responses from the ARC4033-immobilized reference cell were subtracted to account for nonspecific binding. The average maximum response was generated from a minimum of 3 data sets and was used to define the standard deviation for each compound binding to the HIV-1 MA protein.
The MTI compounds are predicted to interact with HIV-1 MA and thereby disrupt its functioning during the HIV-1 replication cycle. However, it is possible that a compound might exert its action via another mechanism not involving MA. Therefore, studies were performed to determine that the MTI compounds are directed against HIV-1 MA. The direct interaction of compounds CMPD-18, CMPD-17, CMPD-7, and CMPD-14 with HIV-1 MA was assayed using surface plasmon resonance interaction analyses. Wild-type HIV-1 MA protein was overproduced in E. coli using the pETHSUL expression system and purified using successive IMAC strategies, followed by an ion exchange chromatographic step as outlined in Materials and Methods. FIG. 6 illustrates the purification profile of HIV-1 MA. The purified MA was then immobilized onto the surface of a high-capacity CM7 sensor chip. Similarly, the monoclonal antibody ARC4033 (antimouse/rat interferon-γ; BioSource, Invitrogen, Carlsbad, Calif.) was immobilized on a CM7 sensor chip and was used to correct for background binding and instrument and buffer artifacts.

[7] = system: HIV-1 92BR030; assay: Anti-HIV efficacy in human PBMCs, reverse transcriptase activity; format: cell-based; details: HIV-1 92BR030, PBMCs; for IC50 / IC90: Human immunodeficiency virus 1, PBMC
Procedure: (§1) HIV human peripheral blood mononuclear cell (PBMC) assays were performed as described previously (Lanier et al., 2010, Antimicrob Agents Chemother 54:2901-2909 and Ptak et al., 2008, Antimicrob Agents Chemother 52:1302-1317). Briefly, fresh PBMCs, seronegative for HIV and hepatitis B virus (HBV), were isolated from blood samples of the screened donors (Biological Specialty Corporation, Colmar, Pa.) by using lymphocyte separation medium (LSM; density, 1.078±0.002 g/ml; Cellgro; Mediatech, Inc.) by following the manufacturer's instructions. Cells were stimulated by incubation in 4 μg/mL phytohemagglutinin (PHA; Sigma) for 48 to 72 h. Mitogenic stimulation was maintained by the addition of 20 U/mL recombinant human interleukin-2 (rhIL-2; R&D Systems, Inc.) to the culture medium. PHA-stimulated PBMCs from at least two donors were pooled, diluted in fresh medium, and added to 96-well plates at 5×10^4 cells/well. Cells were infected (final multiplicity of infection [MOI] of ≅0.1) in the presence of nine different concentrations of test compounds (triplicate wells/concentration) and incubated for 7 days. To determine the level of virus inhibition, cell-free supernatant samples were collected for analysis of reverse transcriptase activity (Buckheit et al., 1991, AIDS Res Hum Retroviruses 7:295-302). Following removal of supernatant samples, compound cytotoxicity was measured by the addition of 3-(4,5-dimethylthiazol-2-yl)-5-(3-carboxymethoxy-phenyl)-2-(4-sulfophenyl)-2H-tetrazolium (MTS; CellTiter 96 reagent; Promega) by following the manufacturer's instructions.

[8] = Compound cytotoxicity in PBMCs (MTS); format: cell-based, human; details: human; Table 4 study, PBMCs; read-out: TC50
Procedure: as §1

[9] = system: Chikungunya; assay: Antiviral spectrum: cytopathic effect assay; format: cell-based
[10] = system: herpes simplex type 1; assay: Antiviral spectrum: HSV-1 in Vero cells; format: cell-based; details: herpes simplex type 1, up to 100 μM
Procedure: The effects of the compounds on HSV-1 (dsDNA; strain HF evaluated in Vero cells; virus and cells obtained from the American Type Culture Collection [ATCC]) were assessed as described previously (Ptak et al., 2008, Antimicrob Agents Chemother 52:1302-1317).

[11] = system: luciferase-reporter HIV-1 NL4-3 pseudotyped with HxBc2 envelope produced in 293T cells; assay: microbe, parasite or virus in culture
[12] = system: Japanese encephalitis; assay: Antiviral spectrum: cytopathic effect assay; format: cell-based

SMILES	inhibitory effects on replication [1]	inhibitory effects on replication [2]	inhibitory effects on replication [3]	inhibitory effects on replication [4]	Antiviral index (TC50/IC50) [5]	IC50 [5] [µM]	IC90 [5] [µM]	direct interaction with sensor chip-immobilized HIV-1 MA [6]	Antiviral index (TC50/IC50) [7]	IC50 [7] [µM]	IC90 [7] [µM]	CC50 at 7 days [8] [µM]	inhibitory effects on replication [9]	inhibitory effects on replication [10]	IC50 [11] [µM]	inhibitory effects on replication [12]	interaction with HIV-1 MA versus SUMO ([6]; 25.1 μM (FIG. 11))
Cc1ccc(NC(=O)CN2CCN(Cc3nc(-c4ccc(F)cc4)no3)CC2)cc1 [CMPD-7, 2-(4-((3-(4-fluorophenyl)-1,2,4-oxadiazol-5-yl)methyl)piperazin-1-yl)-N-(p-tolyl)acetamide]	no inhibitory effects	no inhibitory effects	no inhibitory effects	no inhibitory effects	> 10.55	9.48	31	directly interacted	> 10.72	9.33	> 100	> 100	no inhibitory effects	no inhibitory effects	28	no inhibitory effects	–
O=C(CNC(=O)COc1ccccc1)NCc1ccc(C(=O)N2CCCCC2)cc1 [CMPD-14, N-(2-oxo-2-((4-(piperidine-1-carbonyl)benzyl)amino)ethyl)-2-phenoxyacetamide]	no inhibitory effects	no inhibitory effects	no inhibitory effects	no inhibitory effects	> 5.85	17.1	44.2	directly interacted	> 4.51	22.2	68.6	> 100	no inhibitory effects	no inhibitory effects	95	no inhibitory effects	–
CCOc1ccc(NC(=O)Cc2cn3ccsc3n2)cc1S(=O)(=O)N1CCCCC1 [CMPD-18, N-(4-ethoxy-3-(piperidin-1-ylsulfonyl)phenyl)-2-(imidazo[2,1-b]thiazol-6-yl)acetamide]	no inhibitory effects	no inhibitory effects	no inhibitory effects	no inhibitory effects	1.06	87.1	> 100	directly interacted	3.95	23.4	94	92.3	no inhibitory effects	no inhibitory effects	> 100	no inhibitory effects	specific interaction
